According to patent US7601754B2, “Flavonoid compounds as therapeutic antioxidants” (Antoxis Limited, priority 2002, dated 2009):
Several values for one entry are separate records, joined by “and”; a condition that tells them apart may be missing. Identical values can stand only once.

Tests used:
[1] = Kinetic measurements: stopped-flow ESR, reduction of galvinoxyl radical; assay type: physicochemical; conditions: ESR; kinetic or stoichiometric not stated
Experimental: Within a biological system where a number of polyphenols may be present at similar concentrations, antioxidant efficacy may be predominantly governed by reaction kinetics rather than stoichiornetry. Consequently, the antioxidant potential of thirteen flavonoids and vitamin E were assessed and their kinetic and stochiometric reduction of a synthetic radical using stopped-flow electron spin resonance (ESR) spectroscopy has been compared. The radical used was galvinoxyl (Galv-O°), (2,6-di-tert-butyl-α-(3,5-di-tert-butyl-4-oxo-2,5-cyclohexadien-1-ylidene)-p-tolyloxy) shown below:
Galv-O°+Phenol-OH≈Galv-OH+phenol-O°
The process is governed by the O—H bond dissociation enthalpy of the donor.
Ethanolic solutions of flavonoid (0.2 mM) and galvinoxyl (0.2 mM) were de-oxygenated under a stream of nitrogen gas. Aliquots (6 ml) were transferred to Hamilton gas-tight syringes (10 ml) coupled to a pneumatic ram and connected to a two-stream ESR quartz flow-cell. In situ reaction at 20° C.±2° C. between the flavonoid and galvinoxyl was initiated by rapidly evacuating the syringes. […] Decay curves were obtained by operating in timesweep mode with the static field set at the resonance maximum of the galvinoxyl signal.

[2] = tested on: rat liver microsomes from vitamin E-deficient rats; assay: Inhibition of TBARS production in rat liver microsomes from vitamin E-deficient rats; assay type: biochemical
Experimental: Inhibition of TBARS production in rat liver microsomes from vitamin E-deficient rats by pre-incubation with target antioxidant and related compounds. Microsomes are subcellular fractions containing membrane fragments. In vitamin E-deficient rats, microsomes are especially prone to oxidative free radical damage. This can be quantified in terms of the production of thiobarbituric acid reactive substances (TBARS) which result from radical-mediated destruction of the polyunsaturated fatty acid constituents. Consequently, this is a useful biological model to determine the efficacy of phytochemicals as antioxidant membrane protectants. Vitamin E-deficient microsomal suspensions were incubated for 30 minutes with one of myricetin, sample A, sample B, sample C (as shown below) or d-alpha-tocopherol, or with a compound 9c, 9d, 9e, 9e*, 9f, 9g, 9g*, 9h, 9i* or 9j (prepared as described above in Examples 1 to 10). […] TBARS production was then measured by HPLC.

Solubility in octanol = assay type: physicochemical

O=c1c(O)c(-c2cc(O)c(O)c(O)c2)oc2ccccc12 [Control B]
antioxidant activity by ESR (in words) [1]: retains potent antioxidant activity
TBARS production (Mean) ([2]; after 20 minutes incubation with Fe(II)-ADP/ascorbate, normalised to a tocopherol reading of 20, 30 minutes pre-incubation, higher reading = lower protection): 236.525 and 236.5249
membrane protection against TBARS production (in words) ([2]; over the 20 minute oxidation period): does not give rise to significant membrane protective effects
solubility in octanol (in words) (Solubility in octanol): very soluble in octanol
